How the values were obtained:
Test in all cases: KINOMEscan binding assay
[1] = biological target: T1, ABL1(F317L)-phosphorylated (Homo sapiens, UniProt P00519, F317L); conditions: 1 µM i-CDK9; read-out: % Retention on Solid Support
T1 construct: purchased DiscoveRx KINOMEscan
In short: (§1)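 Active site-directed competition binding measured kinase engagement within a panel of over 400 kinases. i-CDK9 was tested at two concentrations, 1 and 10 µM.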

[2] = biological target: T2, ACVR2A (Homo sapiens, UniProt P27037); conditions: read-out: % Retention on Solid Support
T2 construct: purchased DiscoveRx KINOMEscan
T2 sequence (P27037 20-513): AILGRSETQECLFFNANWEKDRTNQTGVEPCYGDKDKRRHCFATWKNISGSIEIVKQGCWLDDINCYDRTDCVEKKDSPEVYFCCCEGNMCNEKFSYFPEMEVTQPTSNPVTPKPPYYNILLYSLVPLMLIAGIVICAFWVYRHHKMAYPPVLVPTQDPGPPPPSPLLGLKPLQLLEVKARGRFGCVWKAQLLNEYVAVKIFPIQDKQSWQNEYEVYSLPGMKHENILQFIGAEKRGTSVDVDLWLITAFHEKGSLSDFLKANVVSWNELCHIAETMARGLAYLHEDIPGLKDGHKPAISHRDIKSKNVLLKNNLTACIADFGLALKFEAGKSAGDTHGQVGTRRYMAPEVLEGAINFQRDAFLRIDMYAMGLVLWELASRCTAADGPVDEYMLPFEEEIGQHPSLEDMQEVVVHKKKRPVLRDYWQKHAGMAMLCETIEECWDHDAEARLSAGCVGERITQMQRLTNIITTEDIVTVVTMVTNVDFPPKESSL
In short: as §1

[3] = biological target: T3, ANKK1 (Homo sapiens, UniProt Q8NFD2); conditions: read-out: % Retention on Solid Support
T3 construct: purchased DiscoveRx KINOMEscan
T3 sequence (Q8NFD2 whole entry): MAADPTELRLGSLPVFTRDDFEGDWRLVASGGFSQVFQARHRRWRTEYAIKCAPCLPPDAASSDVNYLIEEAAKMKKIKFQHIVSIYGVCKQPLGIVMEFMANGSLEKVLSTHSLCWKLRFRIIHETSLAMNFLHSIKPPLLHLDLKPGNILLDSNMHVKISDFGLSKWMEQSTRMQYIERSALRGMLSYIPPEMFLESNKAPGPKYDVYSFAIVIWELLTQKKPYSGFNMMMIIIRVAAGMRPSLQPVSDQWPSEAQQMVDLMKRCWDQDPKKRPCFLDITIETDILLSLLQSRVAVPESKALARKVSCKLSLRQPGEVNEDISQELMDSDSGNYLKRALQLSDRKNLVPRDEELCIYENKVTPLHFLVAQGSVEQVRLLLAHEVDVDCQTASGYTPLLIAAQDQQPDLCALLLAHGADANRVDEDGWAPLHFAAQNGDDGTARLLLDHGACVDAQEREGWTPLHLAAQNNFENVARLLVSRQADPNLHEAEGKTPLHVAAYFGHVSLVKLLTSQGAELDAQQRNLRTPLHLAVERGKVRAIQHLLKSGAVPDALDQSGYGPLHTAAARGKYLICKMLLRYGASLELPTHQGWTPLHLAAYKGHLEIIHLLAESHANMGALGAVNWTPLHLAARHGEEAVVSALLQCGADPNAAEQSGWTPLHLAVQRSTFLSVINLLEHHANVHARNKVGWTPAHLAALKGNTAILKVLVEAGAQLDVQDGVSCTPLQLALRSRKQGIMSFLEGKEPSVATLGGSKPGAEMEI
In short: as §1

[4] = biological target: T4, CAMKK2 (Homo sapiens, UniProt Q96RR4); conditions: read-out: % Retention on Solid Support
T4 construct: purchased DiscoveRx KINOMEscan
In short: as §1

[5] = biological target: T5, CDKL1 (Homo sapiens, UniProt Q00532); conditions: 1 µM i-CDK9; read-out: % Retention on Solid Support
T5 construct: purchased DiscoveRx KINOMEscan
In short: as §1

[6] = biological target: T6, CSNK1G1 (Homo sapiens, UniProt Q9HCP0)
T6 construct: purchased DiscoveRx KINOMEscan
In short: as §1

[7] = tested on: EGFR(L747-T751del,Sins)
In short: as §1

[8] = biological target: T7, EPHB1 (Homo sapiens, UniProt P54762); conditions: read-out: % Retention on Solid Support
T7 construct: purchased DiscoveRx KINOMEscan
T7 sequence (P54762 18-984): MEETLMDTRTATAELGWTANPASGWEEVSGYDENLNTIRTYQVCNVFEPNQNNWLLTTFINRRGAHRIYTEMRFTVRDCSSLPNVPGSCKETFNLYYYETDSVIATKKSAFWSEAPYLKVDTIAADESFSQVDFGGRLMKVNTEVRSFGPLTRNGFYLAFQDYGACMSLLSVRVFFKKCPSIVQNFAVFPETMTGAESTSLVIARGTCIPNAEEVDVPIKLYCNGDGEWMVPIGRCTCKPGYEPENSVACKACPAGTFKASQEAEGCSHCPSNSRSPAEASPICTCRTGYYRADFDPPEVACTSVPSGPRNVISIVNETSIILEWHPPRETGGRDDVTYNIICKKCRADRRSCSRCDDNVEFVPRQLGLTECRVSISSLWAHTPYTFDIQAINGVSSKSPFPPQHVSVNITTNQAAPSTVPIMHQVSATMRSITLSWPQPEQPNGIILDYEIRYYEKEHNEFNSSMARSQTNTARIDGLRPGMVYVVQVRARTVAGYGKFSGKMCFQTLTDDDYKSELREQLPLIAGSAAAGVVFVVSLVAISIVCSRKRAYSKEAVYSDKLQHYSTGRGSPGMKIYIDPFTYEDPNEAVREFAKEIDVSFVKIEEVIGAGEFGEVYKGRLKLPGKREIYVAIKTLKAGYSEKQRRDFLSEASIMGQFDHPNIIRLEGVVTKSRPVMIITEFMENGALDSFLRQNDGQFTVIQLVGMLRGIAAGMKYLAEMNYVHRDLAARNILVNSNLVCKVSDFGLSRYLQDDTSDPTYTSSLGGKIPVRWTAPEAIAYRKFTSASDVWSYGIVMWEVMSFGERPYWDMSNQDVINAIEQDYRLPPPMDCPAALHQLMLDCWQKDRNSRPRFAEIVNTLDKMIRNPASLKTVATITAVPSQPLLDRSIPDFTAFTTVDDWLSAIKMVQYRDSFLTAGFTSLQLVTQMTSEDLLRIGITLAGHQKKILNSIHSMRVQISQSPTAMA
In short: as §1

[9] = biological target: T8, EPHB2 (Homo sapiens, UniProt P29323)
T8 construct: purchased DiscoveRx KINOMEscan
In short: as §1

[10] = biological target: T9, ERK8 (Homo sapiens, UniProt Q8TD08); conditions: read-out: % Retention on Solid Support
T9 construct: purchased DiscoveRx KINOMEscan
T9 sequence (Q8TD08 whole entry): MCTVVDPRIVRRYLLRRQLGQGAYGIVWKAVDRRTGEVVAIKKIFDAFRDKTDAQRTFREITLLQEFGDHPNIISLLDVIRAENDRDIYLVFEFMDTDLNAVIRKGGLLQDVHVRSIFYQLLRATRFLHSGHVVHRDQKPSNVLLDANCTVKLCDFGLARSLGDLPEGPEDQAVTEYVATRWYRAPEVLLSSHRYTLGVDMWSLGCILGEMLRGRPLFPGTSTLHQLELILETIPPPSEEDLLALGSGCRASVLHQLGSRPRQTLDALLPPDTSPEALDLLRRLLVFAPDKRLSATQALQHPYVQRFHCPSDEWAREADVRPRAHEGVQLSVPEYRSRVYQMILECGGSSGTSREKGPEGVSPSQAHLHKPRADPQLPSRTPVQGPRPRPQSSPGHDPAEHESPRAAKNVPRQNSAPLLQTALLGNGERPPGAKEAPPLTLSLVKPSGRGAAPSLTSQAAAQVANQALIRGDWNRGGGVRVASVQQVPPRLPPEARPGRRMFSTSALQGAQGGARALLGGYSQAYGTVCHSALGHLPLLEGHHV
In short: as §1

[11] = biological target: T10, FLT3(N841I) (Homo sapiens, UniProt P36888, N841I); conditions: read-out: % Retention on Solid Support
T10 construct: purchased DiscoveRx KINOMEscan
In short: as §1

[12] = biological target: T11, GRK7 (Homo sapiens, UniProt Q8WTQ7); conditions: read-out: % Retention on Solid Support
T11 construct: purchased DiscoveRx KINOMEscan
T11 sequence (Q8WTQ7 whole entry): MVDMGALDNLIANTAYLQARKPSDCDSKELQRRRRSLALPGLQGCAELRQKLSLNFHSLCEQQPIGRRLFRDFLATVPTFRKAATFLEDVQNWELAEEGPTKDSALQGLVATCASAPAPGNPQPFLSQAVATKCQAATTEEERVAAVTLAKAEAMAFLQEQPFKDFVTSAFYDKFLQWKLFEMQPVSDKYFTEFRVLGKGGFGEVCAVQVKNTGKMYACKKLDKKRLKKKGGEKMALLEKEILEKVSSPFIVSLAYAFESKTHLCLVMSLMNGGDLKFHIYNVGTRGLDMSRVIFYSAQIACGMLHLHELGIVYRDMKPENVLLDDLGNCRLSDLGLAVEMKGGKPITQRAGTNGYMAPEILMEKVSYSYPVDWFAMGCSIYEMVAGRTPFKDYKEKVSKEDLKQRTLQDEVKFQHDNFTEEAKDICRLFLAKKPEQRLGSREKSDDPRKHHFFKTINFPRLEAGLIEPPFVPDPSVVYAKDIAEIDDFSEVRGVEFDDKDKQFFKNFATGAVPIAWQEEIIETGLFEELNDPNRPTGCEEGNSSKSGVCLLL
In short: as §1

[13] = biological target: T12, HPK1 (Homo sapiens, UniProt Q92918); conditions: read-out: % Retention on Solid Support
T12 construct: purchased DiscoveRx KINOMEscan
In short: as §1

[14] = biological target: T13, LRRK2 (Homo sapiens, UniProt Q5S007); conditions: 1 µM i-CDK9; read-out: % Retention on Solid Support
T13 construct: purchased DiscoveRx KINOMEscan
In short: as §1

[15] = biological target: T14, MLCK (Homo sapiens, UniProt Q32MK0); conditions: read-out: % Retention on Solid Support
T14 construct: purchased DiscoveRx KINOMEscan
In short: as §1

[16] = biological target: T15, PAK1 (Homo sapiens, UniProt Q13153); conditions: read-out: % Retention on Solid Support
T15 construct: purchased DiscoveRx KINOMEscan
T15 sequence (Q13153 whole entry): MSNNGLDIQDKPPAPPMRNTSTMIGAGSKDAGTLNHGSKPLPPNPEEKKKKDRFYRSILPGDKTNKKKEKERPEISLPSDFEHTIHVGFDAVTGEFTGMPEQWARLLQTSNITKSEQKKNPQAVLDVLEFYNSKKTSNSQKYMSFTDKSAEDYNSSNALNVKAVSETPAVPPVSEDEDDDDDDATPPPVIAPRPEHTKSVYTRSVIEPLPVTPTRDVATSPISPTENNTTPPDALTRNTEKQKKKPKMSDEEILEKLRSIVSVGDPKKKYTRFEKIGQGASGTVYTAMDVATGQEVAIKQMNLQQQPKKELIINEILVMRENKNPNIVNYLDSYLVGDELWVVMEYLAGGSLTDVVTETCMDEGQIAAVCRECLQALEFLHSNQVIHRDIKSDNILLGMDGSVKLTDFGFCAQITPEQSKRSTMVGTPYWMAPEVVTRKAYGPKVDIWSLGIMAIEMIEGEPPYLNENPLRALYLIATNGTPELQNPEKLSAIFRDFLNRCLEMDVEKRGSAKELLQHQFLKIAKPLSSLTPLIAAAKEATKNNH
In short: as §1

[17] = biological target: T16, RIOK3 (Homo sapiens, UniProt O14730); conditions: read-out: % Retention on Solid Support
T16 construct: purchased DiscoveRx KINOMEscan
T16 sequence (O14730 whole entry): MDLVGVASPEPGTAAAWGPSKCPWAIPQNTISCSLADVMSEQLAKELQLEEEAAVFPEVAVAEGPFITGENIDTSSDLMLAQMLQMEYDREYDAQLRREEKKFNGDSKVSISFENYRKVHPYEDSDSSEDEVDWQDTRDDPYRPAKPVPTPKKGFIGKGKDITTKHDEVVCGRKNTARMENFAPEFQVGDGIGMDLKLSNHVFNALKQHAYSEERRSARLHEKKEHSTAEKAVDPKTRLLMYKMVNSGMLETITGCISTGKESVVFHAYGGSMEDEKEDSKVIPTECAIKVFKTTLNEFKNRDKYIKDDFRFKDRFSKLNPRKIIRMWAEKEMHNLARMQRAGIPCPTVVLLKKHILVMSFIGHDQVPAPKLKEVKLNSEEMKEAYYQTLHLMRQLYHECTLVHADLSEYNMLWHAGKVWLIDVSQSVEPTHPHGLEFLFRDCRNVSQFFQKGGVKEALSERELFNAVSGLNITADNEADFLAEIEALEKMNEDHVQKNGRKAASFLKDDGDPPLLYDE
In short: as §1

[18] = biological target: T17, ROCK1 (Homo sapiens, UniProt Q13464); conditions: read-out: % Retention on Solid Support
T17 construct: purchased DiscoveRx KINOMEscan
In short: as §1

[19] = biological target: T18, SNARK (Homo sapiens, UniProt Q9H093)
T18 construct: purchased DiscoveRx KINOMEscan
T18 sequence (Q9H093 whole entry): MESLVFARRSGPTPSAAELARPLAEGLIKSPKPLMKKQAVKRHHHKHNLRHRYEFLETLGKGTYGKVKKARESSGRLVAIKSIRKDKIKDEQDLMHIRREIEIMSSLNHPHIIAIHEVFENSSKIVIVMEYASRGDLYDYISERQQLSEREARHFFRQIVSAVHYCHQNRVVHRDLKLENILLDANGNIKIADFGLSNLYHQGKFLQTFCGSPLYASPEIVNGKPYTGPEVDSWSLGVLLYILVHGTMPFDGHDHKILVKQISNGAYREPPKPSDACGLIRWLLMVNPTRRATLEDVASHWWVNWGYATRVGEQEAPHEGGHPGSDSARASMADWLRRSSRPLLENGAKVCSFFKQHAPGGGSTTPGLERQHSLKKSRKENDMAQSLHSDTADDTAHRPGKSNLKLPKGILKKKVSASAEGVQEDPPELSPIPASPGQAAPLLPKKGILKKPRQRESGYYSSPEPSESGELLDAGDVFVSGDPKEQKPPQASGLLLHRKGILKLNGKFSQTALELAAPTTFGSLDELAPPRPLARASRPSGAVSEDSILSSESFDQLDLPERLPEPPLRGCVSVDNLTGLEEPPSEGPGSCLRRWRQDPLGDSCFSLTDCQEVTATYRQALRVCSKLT
In short: as §1

[20] = biological target: T19, TAOK3 (Homo sapiens, UniProt Q9H2K8); conditions: read-out: % Retention on Solid Support
T19 construct: purchased DiscoveRx KINOMEscan
T19 sequence (Q9H2K8 1-898): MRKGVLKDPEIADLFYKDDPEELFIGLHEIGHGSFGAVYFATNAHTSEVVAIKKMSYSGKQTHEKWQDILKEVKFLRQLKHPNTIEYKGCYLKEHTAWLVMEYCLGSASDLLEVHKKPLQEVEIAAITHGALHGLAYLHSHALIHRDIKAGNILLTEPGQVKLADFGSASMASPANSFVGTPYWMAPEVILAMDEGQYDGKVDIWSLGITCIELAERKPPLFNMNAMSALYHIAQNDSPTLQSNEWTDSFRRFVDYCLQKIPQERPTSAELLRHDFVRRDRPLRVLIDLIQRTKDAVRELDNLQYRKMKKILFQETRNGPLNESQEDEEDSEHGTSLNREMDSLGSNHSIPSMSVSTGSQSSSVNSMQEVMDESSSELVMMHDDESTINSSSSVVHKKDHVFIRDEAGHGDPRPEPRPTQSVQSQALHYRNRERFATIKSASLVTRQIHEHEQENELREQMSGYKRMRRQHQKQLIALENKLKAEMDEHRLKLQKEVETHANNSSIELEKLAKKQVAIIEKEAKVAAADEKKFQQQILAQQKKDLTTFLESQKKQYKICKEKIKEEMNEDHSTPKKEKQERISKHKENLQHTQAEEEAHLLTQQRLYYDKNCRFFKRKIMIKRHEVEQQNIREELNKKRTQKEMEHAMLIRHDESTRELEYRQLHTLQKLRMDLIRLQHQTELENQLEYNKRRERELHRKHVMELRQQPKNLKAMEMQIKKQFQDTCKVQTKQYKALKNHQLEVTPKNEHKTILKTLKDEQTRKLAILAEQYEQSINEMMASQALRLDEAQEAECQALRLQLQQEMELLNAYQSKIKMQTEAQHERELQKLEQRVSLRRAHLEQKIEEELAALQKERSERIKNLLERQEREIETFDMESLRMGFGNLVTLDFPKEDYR
In short: as §1

N[C@H]1CC[C@H](Nc2cc(-c3cccc(NCc4cccc(F)c4)n3)c(Cl)cn2)CC1 [i-CDK9, N2′-(trans-4-aminocyclohexyl)-5′-chloro-N6-(3-fluorobenzyl)-2,4′-bipyridine-2′,6-diamine]
remaining binding at 1 µM [1]: 100%
remaining binding at 1 µM ([2]; 1 µM i-CDK9): 98%
remaining binding at 10 µM ([2]; 10 µM i-CDK9): 91%
remaining binding at 1 µM ([3]; 1 µM i-CDK9): 100%
remaining binding at 10 µM ([3]; 10 µM i-CDK9): 100%
remaining binding at 1 µM ([4]; 1 µM i-CDK9): 73%
remaining binding at 10 µM ([4]; 10 µM i-CDK9): 100%
remaining binding at 1 µM [5]: 100%
% Retention on Solid Support ([6]; 1 µM i-CDK9): 81%
% Retention on Solid Support ([6]; 10 µM i-CDK9): 93%
% Retention on Solid Support ([7]; 1 µM i-CDK9): 82%
% Retention on Solid Support ([7]; 10 µM i-CDK9): 61%
remaining binding at 1 µM ([8]; 1 µM i-CDK9): 100%
remaining binding at 10 µM ([8]; 10 µM i-CDK9): 100%
% Retention on Solid Support ([9]; 1 µM i-CDK9): 100%
% Retention on Solid Support ([9]; 10 µM i-CDK9): 66%
remaining binding at 1 µM ([10]; 1 µM i-CDK9): 85%
remaining binding at 10 µM ([10]; 10 µM i-CDK9): 20%
remaining binding at 1 µM ([11]; 1 µM i-CDK9): 48%
remaining binding at 10 µM ([11]; 10 µM i-CDK9): 72%
remaining binding at 1 µM ([12]; 1 µM i-CDK9): 100%
remaining binding at 10 µM ([12]; 10 µM i-CDK9): 84%
remaining binding at 1 µM ([13]; 1 µM i-CDK9): 86%
remaining binding at 10 µM ([13]; 10 µM i-CDK9): 100%
remaining binding at 1 µM [14]: 100%
remaining binding at 1 µM ([15]; 1 µM i-CDK9): 100%
remaining binding at 10 µM ([15]; 10 µM i-CDK9): 90%
remaining binding at 1 µM ([16]; 1 µM i-CDK9): 100%
remaining binding at 10 µM ([16]; 10 µM i-CDK9): 100%
remaining binding at 1 µM ([17]; 1 µM i-CDK9): 86%
remaining binding at 10 µM ([17]; 10 µM i-CDK9): 73%
remaining binding at 1 µM ([18]; 1 µM i-CDK9): 100%
remaining binding at 10 µM ([18]; 10 µM i-CDK9): 93%
% Retention on Solid Support ([19]; 1 µM i-CDK9): 100%
% Retention on Solid Support ([19]; 10 µM i-CDK9): 87%
remaining binding at 1 µM ([20]; 1 µM i-CDK9): 12%
remaining binding at 10 µM ([20]; 10 µM i-CDK9): 1.2%
